Experimental data taken from patent publication US20230014907A1, “INHIBITORS OF APOL1 AND METHODS OF USING SAME” (Vertex Pharmaceuticals Incorporated, priority 2020, published 2023).

Target: T1, G1 APOL1 (Homo sapiens, UniProt O14791, I384M/S342G)
T1 construct: expressed in transfected cells
T1 sequence (O14791 28-398 S342G/I384M): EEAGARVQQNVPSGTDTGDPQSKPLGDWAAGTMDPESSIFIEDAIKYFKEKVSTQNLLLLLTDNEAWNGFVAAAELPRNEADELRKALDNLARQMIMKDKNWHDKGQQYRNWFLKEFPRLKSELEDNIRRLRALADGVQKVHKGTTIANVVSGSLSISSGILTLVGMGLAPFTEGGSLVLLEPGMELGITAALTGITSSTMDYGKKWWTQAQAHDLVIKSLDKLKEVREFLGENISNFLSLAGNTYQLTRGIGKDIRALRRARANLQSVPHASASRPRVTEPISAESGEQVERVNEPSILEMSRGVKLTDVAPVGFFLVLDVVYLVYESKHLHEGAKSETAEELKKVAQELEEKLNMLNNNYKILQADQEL
Assay: Acute APOL1 Thallium Assay with Inducible Stable Clones of HEK 293 Cells
Assay type: cell-based
Conditions: HEK 293 inducible stable clones, G1 APOL1; read-out: Thallium Assay (IC50)
Procedure, shortened: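 Pore activity was read as the fluorescence increase from Tl+ entering cells loaded with an AM-ester thallium indicator dye. The cells were tetracycline-inducible HEK293 T-Rex expressing G1 APOL1 (clone DC3.25), induced when plated at 26000 per well and incubated at 37° C.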

Row | IC50 [µM] | Structure (SMILES)
1 | 0.25 to 1 | C[C@H](CO)NC(=O)NCCc1c(-c2ccc(F)cc2)[nH]c2c(F)cc(F)cc12 [Compound 282]
2 | > 1 | O=C(NCCc1c(-c2ccc(F)cc2)[nH]c2c(F)cc(F)cc12)NCC1(CO)CC1 [Compound 276]
3 | > 1 | O=C(NCCc1c(-c2ccc(F)cc2)[nH]c2c(F)cc(F)cc12)NCC(O)C(F)F (stereo not drawn) [Compound 267]
4 | > 1 | O=C(CCc1c(-c2ccc(F)cc2)[nH]c2c(F)cc(Cl)cc12)NC[C@H](O)CO [Compound 204]
5 | > 1 | CC1(CNC(=O)NCCc2c(-c3ccc(F)cc3)[nH]c3c(F)cc(F)cc23)COC1 [Compound 298]
6 | < 0.25 | CC(CO)(CO)NC(=O)OCCc1c(-c2ccc(F)cc2)[nH]c2c(F)cc(F)cc12 [Compound 434, 2-[5,7-difluoro-2-(4-fluorophenyl)-1H-indol-3-yl]ethyl N-[2-hydroxy-1-(hydroxymethyl)-1-methyl-ethyl]carbamate]
7 | > 1 | O=C(NCc1cn(CC(F)(F)F)cn1)OCCc1c(-c2ccc(F)cc2)[nH]c2c(F)cc(F)cc12 [Compound 493]
8 | > 1 | CC(C)(C)OC(=O)N[C@@H](CCO)C(=O)NCCc1c(-c2ccc(F)cc2)[nH]c2c(F)cc(F)cc12 [Compound 307]
9 | 0.25 to 1 | O=C(N[C@H]1CCOC1)OCCc1c(-c2ccc(F)cc2)[nH]c2c(F)cc(F)cc12 [Compound 469]
10 | > 1 | CC(=O)NCCc1c(-c2ccc(F)cc2)[nH]c2c(F)cc(F)cc12 [Compound 418, N-[2-[5,7-difluoro-2-(4-fluorophenyl)-1H-indol-3-yl]ethyl]acetamide]
11 | < 0.25 | O=C(N[C@@H]1CCNC1=O)OCCc1c(-c2ccc(F)cc2)[nH]c2c(F)cc(F)cc12 [Compound 448]
12 | > 1 | Nc1ncc(C(=O)NCCc2c(-c3ccc(F)cc3)[nH]c3c(F)cc(F)cc23)s1 [Compound 328]
13 | 0.25 to 1 | O=C(NC1CC(F)(F)C1)OCCc1c(-c2ccc(F)cc2)[nH]c2c(F)cc(F)cc12 [Compound 465]
14 | > 1 | CC(C)(O)C(=O)NCCc1c(-c2ccc(F)cc2)[nH]c2c(F)cc(F)cc12 [Compound 355]
15 | > 1 | O=C(CCCc1c(-c2ccc(F)cc2)[nH]c2c(F)cc(F)cc12)N1C[C@@H](O)[C@H](O)C1 [Compound 248]
16 | 0.25 to 1 | CC(C)[C@@H](CO)NC(=O)OCCc1c(-c2ccc(F)cc2)[nH]c2c(F)cc(F)cc12 [Compound 459]
17 | < 0.25 | O=C1CC(C(=O)NCCc2c(-c3ccc(F)cc3)[nH]c3c(F)cc(F)cc23)C(=O)N1 (stereo not drawn) [Compound 333]

Row | IC50 [µM] | Structure (SMILES)
18 | 0.25 to 1 | CC1(C(=O)NCCc2c(-c3ccc(F)cc3)[nH]c3c(F)cc(F)cc23)COC1 [Compound 410]
19 | > 1 | O=C(NCCc1c(-c2ccc(F)cc2)[nH]c2c(F)cc(F)cc12)C(F)F [Compound 414]
20 | > 1 | Cc1cc(F)c2[nH]c(-c3ccc(F)cc3)c(CCC(=O)NC(CO)(CO)CO)c2c1 [Compound 217]
21 | > 1 | O=C(NCCc1c(-c2ccc(F)cc2)[nH]c2c(F)cc(F)cc12)c1cn[nH]c1 [Compound 352]
22 | > 1 | CN1CC(NC(=O)NCCc2c(-c3ccc(F)cc3)[nH]c3c(F)cc(F)cc23)CC1=O (stereo not drawn) [Compound 294]
23 | > 1 | CC1(O)CC(NC(=O)OCCc2c(-c3ccc(F)cc3)[nH]c3c(F)cc(F)cc23)C1 (mixture of isomers) [Compound 495]
24 | < 0.25 | CC[C@@H](CO)NC(=O)OCCc1c(-c2ccc(F)cc2)[nH]c2c(F)cc(F)cc12 [Compound 446]
25 | > 1 | OC1(CC#Cc2c(-c3ccc(F)cc3)[nH]c3c(F)cc(F)cc23)CCC1 [Compound 525, 1-[3-[5,7-difluoro-2-(4-fluorophenyl)-1H-indol-3-yl]prop-2-ynyl]cyclobutanol]
26 | 0.25 to 1 | O=C(NCCc1c(-c2ccc(F)cc2)[nH]c2c(F)cc(F)cc12)c1c[nH]cn1 [Compound 353]
27 | > 1 | O=C(/C=C/c1c(-c2ccc(F)cc2)[nH]c2c(F)ccc(F)c12)N[C@H]1CCNC1=O [Compound 520, (E)-3-[4,7-difluoro-2-(4-fluorophenyl)-1H-indol-3-yl]-N-[(3S)-2-oxopyrrolidin-3-yl]prop-2-enamide]
28 | 0.25 to 1 | O=C(CCc1c(-c2ccc(F)cc2)[nH]c2c(F)cc(Cl)cc12)NC1(CO)CCC1 [Compound 194, 3-[5-chloro-7-fluoro-2-(4-fluorophenyl)-1H-indol-3-yl]-N-[1-(hydroxymethyl)cyclobutyl]propanamide]
29 | > 1 | COC(=O)/C=C/c1c(-c2ccc(C#N)cc2)[nH]c2c(F)cc(F)cc12 [Compound 521, Methyl (E)-3-[2-(4-cyanophenyl)-5,7-difluoro-1H-indol-3-yl]prop-2-enoate]
30 | > 1 | Cc1cc(CNC(=O)OCCc2c(-c3ccc(F)cc3)[nH]c3c(F)cc(F)cc23)on1 [Compound 492]
31 | > 1 | C[C@@H](CO)N(C)C(=O)NCCc1c(-c2ccc(F)cc2)[nH]c2c(F)cc(F)cc12 [Compound 300]
32 | < 0.25 | C[C@H](CO)NC(=O)OCCc1c(-c2ccc(F)cc2)[nH]c2c(F)cc(F)cc12 [Compound 445]
33 | 0.25 to 1 | O=C(NCCc1c(-c2ccc(F)cc2)[nH]c2c(F)cc(F)cc12)N[C@@H](CO)C(F)(F)F [Compound 261]
34 | 0.25 to 1 | C[C@H](CO)NC(=O)CCCc1c(-c2ccc(F)cc2)[nH]c2c(F)cc(F)cc12 [Compound 241]

Further lines, the molecule ahead of its results:

Row | Structure (SMILES) | IC50 [µM]
35 | O=C1NCC(C(=O)NCCc2c(-c3ccc(F)cc3)[nH]c3c(F)cc(F)cc23)O1 (stereo not drawn) [Compound 337] | > 1
36 | O=C(NCCc1c(-c2ccc(F)cc2)[nH]c2c(F)cc(F)cc12)NCC1CCCO1 (stereo not drawn) [Compound 297] | > 1
37 | CCC(O)CNC(=O)OCCc1c(-c2ccc(F)cc2)[nH]c2c(F)cc(F)cc12 (stereo not drawn) [Compound 472] | 0.25 to 1
38 | O=C1CC(C(=O)NCCc2c(-c3ccc(F)cc3)[nH]c3c(F)cc(F)cc23)CO1 (stereo not drawn) [Compound 383] | > 1
39 | CN(C[C@H](O)CO)C(=O)OCCc1c(-c2ccc(F)cc2)[nH]c2c(F)cc(F)cc12 [Compound 482] | > 1
40 | O=C(NCC1(O)CCS(=O)(=O)C1)OCCc1c(-c2ccc(F)cc2)[nH]c2c(F)cc(F)cc12 (stereo not drawn) [Compound 498] | > 1
41 | O=C(NCCc1c(-c2ccc(F)cc2)[nH]c2c(F)cc(F)cc12)c1ccnnc1 [Compound 399] | > 1
42 | Cc1ccc(CNC(=O)OCCc2c(-c3ccc(F)cc3)[nH]c3c(F)cc(F)cc23)o1 [Compound 485] | > 1
43 | O=C(CCCc1c(-c2ccc(F)cc2)[nH]c2c(F)cc(F)cc12)N[C@@H]1CCNC1=O [Compound 247] | > 1
44 | Cn1cc(CNC(=O)OCCc2c(-c3ccc(F)cc3)[nH]c3c(F)cc(F)cc23)nn1 [Compound 490] | > 1
45 | N#CC(CO)NC(=O)CCc1c(-c2ccc(F)cc2)[nH]c2c(F)cc(Cl)cc12 (stereo not drawn) [Compound 198] | 0.25 to 1
46 | NCCc1c(-c2ccc(F)cc2)[nH]c2c(F)cc(F)cc12 [Compound 432, 2-[5,7-difluoro-2-(4-fluorophenyl)-1H-indol-3-yl]ethanamine] | > 1
47 | NC(=O)CNC(=O)CCc1c(-c2ccc(F)cc2)[nH]c2c(F)cc(Cl)cc12 [Compound 201] | > 1
48 | O=C1CC(C(=O)NCCc2c(-c3ccc(F)cc3)[nH]c3c(F)cc(F)cc23)NC(=O)N1 (stereo not drawn) [Compound 309] | > 1
49 | CC(CC#N)NC(=O)NCCc1c(-c2ccc(F)cc2)[nH]c2c(F)cc(F)cc12 (racemic) [Compound 301] | < 0.25
50 | O=C(NCCc1c(-c2ccc(F)cc2)[nH]c2c(F)cc(F)cc12)[C@H]1CC[C@H](O)CC1 [Compound 325] | > 1
51 | CC(C)(C)OC(=O)NC1(CC(=O)NCCc2c(-c3ccc(F)cc3)[nH]c3c(F)cc(F)cc23)CC1 [Compound 312] | > 1
52 | CC(C)(C)OC(=O)NCC(=O)NCCc1c(-c2ccc(F)cc2)[nH]c2c(F)cc(F)cc12 [Compound 317] | > 1
53 | O=C(CCCc1c(-c2ccc(F)cc2)[nH]c2c(F)cc(F)cc12)N[C@H]1CCNC1=O [Compound 249] | > 1
54 | O=C(NC[C@@H](O)CO)OCCc1c(-c2ccc(F)cc2)[nH]c2c(F)cc(F)cc12 [Compound 476] | > 1
55 | O=C(CCc1c(-c2ccc(F)cc2)[nH]c2c(Cl)cccc12)N[C@@H](CO)C(F)F [Compound 231, 3-[7-chloro-2-(4-fluorophenyl)-1H-indol-3-yl]-N-[(1S)-2,2-difluoro-1-(hydroxymethyl)ethyl]propanamide] | < 0.25
56 | O=C(CCc1c(-c2ccc(F)cc2)[nH]c2c(F)cc(F)cc12)N[C@@H](CO)C(F)F [Compound 132] | < 0.25
57 | O=C(NCc1cnco1)OCCc1c(-c2ccc(F)cc2)[nH]c2c(F)cc(F)cc12 [Compound 477] | > 1
58 | Cc1cc(F)c2[nH]c(-c3ccc(F)cc3)c(CCC(=O)N[C@H](C)CO)c2c1 [Compound 213] | 0.25 to 1
59 | Cn1cc(CNC(=O)CCCc2c(-c3ccc(F)cc3)[nH]c3c(F)cc(F)cc23)cn1 [Compound 254] | > 1
60 | C[C@@H](CO)NC(=O)N(C)CCc1c(-c2ccc(F)cc2)[nH]c2c(F)cc(F)cc12 [Compound 303] | > 1
61 | O=C(NCCc1c(-c2ccc(F)cc2)[nH]c2c(F)cc(F)cc12)c1ccc(O)nc1 [Compound 334] | > 1
62 | O=C(CCc1c(-c2ccc(F)cc2)[nH]c2ccc(F)cc12)N[C@@H](CO)C(F)F [Compound 3] | 0.25 to 1
63 | N#CCC(=O)NCCc1c(-c2ccc(F)cc2)[nH]c2c(F)cc(F)cc12 [Compound 416] | > 1
